{
  "source": "paper PMC5999033",
  "about": "(European journal of medicinal chemistry, 2018)",
  "key": {"[1]": {"assay": "Dynamic light scattering, colloidal aggregation", "type": "physicochemical", "conditions": "20 μM in PBS, 24°C"}, "[2]": {"biological_target": "T1, FABP7 (Homo sapiens, UniProt O15540)", "T1 sequence (O15540 whole entry)": "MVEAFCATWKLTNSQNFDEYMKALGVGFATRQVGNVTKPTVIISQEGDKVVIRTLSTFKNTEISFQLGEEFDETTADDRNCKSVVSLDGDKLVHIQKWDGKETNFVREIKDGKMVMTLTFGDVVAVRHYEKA", "assay": "Direct ligand binding assay of fluorescent probes, FABP7"}, "[3]": {"biological_target": "T2, FABP3 (Homo sapiens, UniProt P05413)", "T2 sequence (P05413 whole entry)": "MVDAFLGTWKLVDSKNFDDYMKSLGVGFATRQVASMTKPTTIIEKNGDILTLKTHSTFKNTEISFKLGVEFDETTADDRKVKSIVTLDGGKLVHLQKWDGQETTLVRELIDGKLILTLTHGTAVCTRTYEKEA", "assay": "Direct ligand binding assay of fluorescent probes, FABP3"}, "[4]": {"biological_target": "T3, FABP5 (Homo sapiens, UniProt Q01469)", "T3 sequence (Q01469 whole entry)": "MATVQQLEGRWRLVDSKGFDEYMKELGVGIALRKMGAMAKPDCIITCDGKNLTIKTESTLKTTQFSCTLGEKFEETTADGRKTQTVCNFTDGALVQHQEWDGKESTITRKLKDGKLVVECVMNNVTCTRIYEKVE", "assay": "Direct ligand binding assay of fluorescent probes, FABP5"}, "[5]": {"biological_target": "FABP4 (Homo sapiens, UniProt P15090)", "sequence (P15090 whole entry)": "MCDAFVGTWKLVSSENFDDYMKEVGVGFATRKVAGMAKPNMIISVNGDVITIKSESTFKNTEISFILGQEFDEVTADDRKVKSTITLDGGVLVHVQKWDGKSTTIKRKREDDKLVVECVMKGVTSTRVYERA", "assay": "FABP4 inhibition", "conditions": "Fig. S5"}, "[6]": {"tested_on": "formalin-induced mouse models", "conditions": "cited from earlier work"}, "[7]": {"biological_target": "T1, FABP7", "conditions": "read-out: Kd towards FABP7; determined in a previous study; cited from earlier work"}, "[8]": {"biological_target": "T3, FABP5", "conditions": "read-out: Kd towards FABP5; determined in a previous study; cited from earlier work"}, "[9]": {"biological_target": "T2, FABP3", "conditions": "read-out: Kd towards FABP3; determined in a previous study; cited from earlier work"}},
  "note": "Where two headings read alike, the source gives them in different places.",
  "data": [
    {"smiles": "O=C(O)C1C(c2ccccc2)C(C(=O)O[C@@H]2CCCC[C@H]2c2ccccc2)C1c1ccccc1", "note": "(stereo partly drawn) [Compound 3l, 1-[(1R,2S)-2-Phenylcyclohexyl] α-3-hydroxycarbonyl-2,4-diphenylcyclobutane-1-carboxylate]", "values": [
      {"measurement": "colloidal aggregation by DLS", "setting": "[1]", "value": "no evidence of colloidal aggregation"}
    ]},
    {"smiles": "O=S(=O)(O)c1cccc2cccc(Nc3ccccc3)c12", "note": "[ANS, 1-Anilinonaphthalene-8-sulfonic Acid]", "values": [
      {"measurement": "Kd", "setting": "[2]", "value": 1.01, "unit": "µM"}
    ]},
    {"smiles": "CN(C)c1cccc2c(S(=O)(=O)NCCCCCCCCCCC(=O)O)cccc12", "note": "[DAUDA, 11-[5-(Dimethylamino)-1-naphthalenesulfonyl-amino]undecanoic acid]", "values": [
      {"measurement": "Kd", "setting": "[3]", "value": 2.04, "unit": "µM"},
      {"measurement": "Kd", "setting": "[4]", "value": 2.56, "unit": "µM"}
    ]},
    {"smiles": "COc1ccccc1[C@H]1[C@H](C(=O)O)[C@H](c2ccccc2OC)[C@H]1C(=O)Oc1cccc2ccccc12", "note": "(racemic) [Compound 4b, 1-Naphthyl α-3-hydroxycarbonyl-2,4-di(2-methoxylphenyl)cyclobutane-1-carboxylate]", "values": [
      {"measurement": "FABP4 inhibition", "setting": "[5]", "value": "do not appreciably inhibit FABP4"}
    ]},
    {"smiles": "COc1cc([C@H]2[C@H](C(=O)O[C@@H]3C[C@@H]4[C@@H](CN(C)C[C@@H]4C)[C@@H]3C)[C@H](c3ccc(O)c(OC)c3)[C@H]2C(=O)O[C@@H]2C[C@@H]3[C@@H](CN(C)C[C@@H]3C)[C@@H]2C)ccc1O", "note": "[(-)-incarvillateine]", "values": [
      {"measurement": "analgesic and anti-inflammatory effects", "setting": "[6]", "value": "potent analgesic and anti-inflammatory effects"}
    ]},
    {"smiles": "CCCCCCC(CCCCCCCCCCC(=O)O)N(C)c1ccc([N+](=O)[O-])c2nonc12", "note": "(centres unmarked) [NBD-stearate, 12-N-methyl-(7-nitrobenz-2-oxa-1,3-diazo)aminostearic acid]", "values": [
      {"measurement": "Kd", "setting": "[7]", "value": 0.22, "unit": "µM"},
      {"measurement": "Kd", "setting": "[8]", "value": 0.16, "unit": "µM"},
      {"measurement": "Kd", "setting": "[9]", "value": 0.018, "unit": "µM"}
    ]},
    {"smiles": "COc1ccccc1[C@H]1[C@H](C(=O)O)[C@H](c2ccccc2OC)[C@H]1C(=O)OCC1c2ccccc2-c2ccccc21", "note": "(racemic) [Compound 4j, 9-Fluorenylmethyl α-3-hydroxycarbonyl-2,4-di(2-methoxylphenyl)cyclobutane-1-carboxylate]", "values": [
      {"measurement": "FABP4 inhibition", "setting": "[5]", "value": "do not appreciably inhibit FABP4"}
    ]},
    {"smiles": "C#Cc1cccc(OC(=O)[C@H]2[C@@H](c3ccccc3)[C@H](C(=O)O)[C@@H]2c2ccccc2)c1", "note": "(racemic) [Compound 3f, 1-(3-Ethynylphenyl) α-3-hydroxycarbonyl-2,4-diphenylcyclobutane-1-carboxylate]", "values": [
      {"measurement": "FABP4 inhibition", "setting": "[5]", "value": "do not appreciably inhibit FABP4"}
    ]}
  ]
}
